Test results reported in patent publication US12679878B2, “CRF2 receptor agonists and their use in therapy” (SANOFI, priority 2020, dated 2026).
Like-named read-outs stand apart in the source and are kept apart here. Starred links: 1 amine or outer side, 2 acyl side, 3 side chain; linkers in the order of their positions; H or OH if unused. Non-standard residues stand in square brackets, D forms with d. Residues, ends and D or L forms follow the SMILES beside them. Groups on a side chain read outwards from the residue. *: point of attachment. C18 diacid = O=C(O)CCCCCCCCCCCCCCCCC(=O)*; γGlu = O=C(O)[C@H](CCC(=O)[*:2])N[*:1]; AEEA = NCCOCCOCC(=O)O; Aib = CC(C)(N)C(=O)O

Key:
human CRF2α receptor = molecular target: T1, human CRF2α receptor (Homo sapiens, UniProt Q13324); test: cAMP agonism at human CRF2 α receptor in TeloHEAC cells (Example 7); format: cell-based; conditions: cAMP HTRF, TeloHEAC cells stably expressing human CRF2 α
T1 construct: expressed in transfected cells; host or cells: TeloHEAC
T1 sequence (Q13324 1-411): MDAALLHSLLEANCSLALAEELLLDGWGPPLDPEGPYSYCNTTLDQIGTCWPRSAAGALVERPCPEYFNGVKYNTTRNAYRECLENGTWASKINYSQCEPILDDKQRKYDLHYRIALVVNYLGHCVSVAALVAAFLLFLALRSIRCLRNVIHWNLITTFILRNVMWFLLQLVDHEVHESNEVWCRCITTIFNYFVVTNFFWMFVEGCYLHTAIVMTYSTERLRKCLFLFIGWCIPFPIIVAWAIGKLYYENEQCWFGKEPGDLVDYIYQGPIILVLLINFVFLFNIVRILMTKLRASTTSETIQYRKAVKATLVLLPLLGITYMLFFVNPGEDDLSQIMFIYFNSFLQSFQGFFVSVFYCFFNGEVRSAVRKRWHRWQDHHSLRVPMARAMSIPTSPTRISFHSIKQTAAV
In short: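 Thawed frozen stably transfected cells in HBSS/20 mM HEPES (0% or 0.1% HSA) plus 2 mM IBMX were exposed to compound at 2000 cells/well for 30 min at room temperature. Intracellular cAMP was read by HTRF (665/620 nm ratio) after 1 h lysis; EC50 was derived with 1000 nM urocortin 2 set as 100%.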

CRF1R receptor = molecular target: T2, CRF1R receptor (Homo sapiens, UniProt P34998); test: cAMP activity at anti-target CRF1R, CHO-K1 cell line clone 2 (Example 19.10); format: cell-based; conditions: CRF1R CHO-K1 clone 2; for EC50: 0% HSA, read-out: EC50 [nM] 0% HSA; for Emax: 100% = Sauvagine at 100 nM
T2 construct: host or cells: CHO-K1 clone 2
T2 sequence (P34998 24-415): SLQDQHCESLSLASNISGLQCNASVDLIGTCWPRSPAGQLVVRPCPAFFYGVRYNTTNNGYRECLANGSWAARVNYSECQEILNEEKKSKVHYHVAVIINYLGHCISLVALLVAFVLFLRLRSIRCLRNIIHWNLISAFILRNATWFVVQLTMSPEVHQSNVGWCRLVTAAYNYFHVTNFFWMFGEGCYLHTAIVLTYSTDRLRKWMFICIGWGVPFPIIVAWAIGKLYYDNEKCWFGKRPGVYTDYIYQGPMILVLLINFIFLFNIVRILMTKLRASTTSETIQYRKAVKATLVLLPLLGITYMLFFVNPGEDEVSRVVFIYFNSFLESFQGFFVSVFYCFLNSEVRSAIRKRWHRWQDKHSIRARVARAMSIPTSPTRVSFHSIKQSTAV
In short: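 The cAMP read-out used the same protocol as the previous assay, except that Sauvagine at 100 nM set the 100% activation control. Cells were CHO-K1 clone 2 overexpressing CRF1R, cultured in F12 medium with 10% FBS and G418 and stored frozen until use.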

[1] = 0% HSA, read-out: EC50 [nM], 0% HSA
[2] = 0.1% HSA, read-out: EC50 [nM], 0.1% HSA

| EC50 (human CRF2α receptor; [1]) | EC50 (human CRF2α receptor; [2]) | EC50 (CRF1R receptor) | Emax (CRF1R receptor) | SMILES |
| --- | --- | --- | --- | --- |
| 0.04 nM | 1.71 nM | > 100 nM | 6.9% | CC[C@H](C)[C@H](N)C(=O)N[C@H](C(=O)N[C@@H](CC(C)C)C(=O)N[C@@H](CO)C(=O)N[C@@H](CC(C)C)C(=O)N[C@@H](CC(=O)O)C(=O)N[C@H](C(=O)N1CCC[C@H]1C(=O)N[C@H](C(=O)N[C@@H](CCCCN)C(=O)N[C@@H](CC(C)C)C(=O)N[C@@H](CCCCNC(=O)COCCOCCNC(=O)COCCOCCNC(=O)CC[C@H](NC(=O)CCCCCCCCCCCCCCCCC(=O)O)C(=O)O)C(=O)N[C@@H](CCC(N)=O)C(=O)N[C@H](C(=O)N[C@@H](CC(C)C)C(=O)N[C@@H](CC(C)C)C(=O)N[C@@H](CCCCN)C(=O)N[C@@H](CCC(N)=O)C(=O)N[C@@H](CCC(=O)O)C(=O)N[C@@H](CCCNC(=N)N)C(=O)N[C@@H](CCC(N)=O)C(=O)N[C@@H](CCCCN)C(=O)N[C@@H](CCCCN)C(=O)N[C@@H](CCC(N)=O)C(=O)N[C@@H](CCCNC(=N)N)C(=O)N[C@@H](CCC(N)=O)C(=O)N[C@@H](CCC(N)=O)C(=O)N[C@@H](C)C(=O)N[C@@H](CCC(=O)O)C(=O)N[C@@H](CCCCN)C(=O)N[C@@H](CC(N)=O)C(=O)N[C@@H](CCCCN)C(=O)N[C@@H](CCC(N)=O)C(=O)N[C@H](C(=O)N[C@@H](CC(C)C)C(=O)N[C@@H](C)C(=O)N[C@@H](CCC(N)=O)C(=O)N[C@H](C(N)=O)C(C)C)[C@@H](C)CC)[C@@H](C)CC)[C@@H](C)CC)C(C)C)C(C)C [compound 122] (H-IVLSLDVPIKLK([AEEA-AEEA-γGlu-C18 diacid])QILLKQERQKKQRQQAEKNKQILAQV-NH2; N-terminus assumed) |
| 0.33 nM | 9.74 nM | > 100 nM | 9% | CC[C@H](C)[C@H](N)C(=O)N[C@H](C(=O)N[C@@H](CC(C)C)C(=O)N[C@@H](CO)C(=O)N[C@@H](CC(C)C)C(=O)N[C@@H](CC(=O)O)C(=O)N[C@H](C(=O)N1CCC[C@H]1C(=O)N[C@H](C(=O)N[C@@H](CCCCN)C(=O)N[C@@H](CC(C)C)C(=O)N[C@@H](CCCCNC(=O)COCCOCCNC(=O)COCCOCCNC(=O)CC[C@H](NC(=O)CCCCCCCCCCCCCCCCC(=O)O)C(=O)O)C(=O)N[C@@H](CCC(N)=O)C(=O)N[C@H](C(=O)N[C@@H](CC(C)C)C(=O)N[C@@H](CC(C)C)C(=O)N[C@@H](CCC(=O)O)C(=O)N[C@@H](CCC(N)=O)C(=O)N[C@@H](C)C(=O)N[C@@H](CCCNC(=N)N)C(=O)N[C@@H](CCC(N)=O)C(=O)N[C@@H](CCCCN)C(=O)NC(C)(C)C(=O)N[C@@H](CCC(N)=O)C(=O)N[C@@H](CCCNC(=N)N)C(=O)N[C@@H](C)C(=O)N[C@@H](CCC(N)=O)C(=O)N[C@@H](C)C(=O)N[C@@H](CCC(=O)O)C(=O)N[C@@H](CCCCN)C(=O)N[C@@H](CC(N)=O)C(=O)N[C@@H](CCCCN)C(=O)N[C@@H](CCCNC(=N)N)C(=O)N[C@H](C(=O)N[C@@H](CC(C)C)C(=O)N[C@@H](CCC(=O)O)C(=O)N[C@@H](CCCNC(=N)N)C(=O)N[C@H](C(N)=O)C(C)C)[C@@H](C)CC)[C@@H](C)CC)[C@@H](C)CC)C(C)C)C(C)C [compound 123] (H-IVLSLDVPIKLK([AEEA-AEEA-γGlu-C18 diacid])QILLEQARQK[Aib]QRAQAEKNKRILERV-NH2; N-terminus assumed) |
| 0.11 nM | 4.37 nM | > 100 nM | -2.5% | CC[C@H](C)[C@H](N)C(=O)N[C@H](C(=O)N[C@@H](CC(C)C)C(=O)N[C@@H](CO)C(=O)N[C@@H](CC(C)C)C(=O)N[C@@H](CC(=O)O)C(=O)N[C@H](C(=O)N1CCC[C@H]1C(=O)N[C@H](C(=O)N[C@@H](CCCCN)C(=O)N[C@@H](CC(C)C)C(=O)N[C@@H](CCCCNC(=O)COCCOCCNC(=O)COCCOCCNC(=O)CC[C@H](NC(=O)CCCCCCCCCCCCCCCCC(=O)O)C(=O)O)C(=O)N[C@@H](CCC(N)=O)C(=O)N[C@H](C(=O)N[C@@H](CC(C)C)C(=O)N[C@@H](CC(C)C)C(=O)N[C@@H](CCCCN)C(=O)N[C@@H](CCC(N)=O)C(=O)N[C@@H](C)C(=O)N[C@@H](CCCNC(=N)N)C(=O)N[C@@H](CCC(N)=O)C(=O)N[C@@H](CCCCN)C(=O)NC(C)(C)C(=O)N[C@@H](CCC(N)=O)C(=O)N[C@@H](CCCNC(=N)N)C(=O)N[C@@H](C)C(=O)N[C@@H](CCC(N)=O)C(=O)N[C@@H](C)C(=O)N[C@@H](CCC(=O)O)C(=O)N[C@@H](CCCCN)C(=O)N[C@@H](CC(N)=O)C(=O)N[C@@H](CCCCN)C(=O)N[C@@H](CCCNC(=N)N)C(=O)N[C@H](C(=O)N[C@@H](CC(C)C)C(=O)N[C@@H](CCC(=O)O)C(=O)N[C@@H](CCCNC(=N)N)C(=O)N[C@H](C(N)=O)C(C)C)[C@@H](C)CC)[C@@H](C)CC)[C@@H](C)CC)C(C)C)C(C)C [compound 124] (H-IVLSLDVPIKLK([AEEA-AEEA-γGlu-C18 diacid])QILLKQARQK[Aib]QRAQAEKNKRILERV-NH2; N-terminus assumed) |
| 0.47 nM | 19.9 nM | > 100 nM | 17.7% | CC[C@H](C)[C@H](N)C(=O)N[C@H](C(=O)N[C@@H](CC(C)C)C(=O)N[C@@H](CO)C(=O)N[C@@H](CC(C)C)C(=O)N[C@@H](CC(=O)O)C(=O)N[C@H](C(=O)N1CCC[C@H]1C(=O)N[C@H](C(=O)N[C@@H](CCCCN)C(=O)N[C@@H](CC(C)C)C(=O)N[C@@H](CCCCNC(=O)COCCOCCNC(=O)COCCOCCNC(=O)CC[C@H](NC(=O)CCCCCCCCCCCCCCCCC(=O)O)C(=O)O)C(=O)N[C@@H](CCC(N)=O)C(=O)N[C@H](C(=O)N[C@@H](CC(C)C)C(=O)N[C@@H](CC(C)C)C(=O)N[C@@H](CCC(=O)O)C(=O)N[C@@H](CCC(N)=O)C(=O)N[C@@H](C)C(=O)N[C@@H](CCCNC(=N)N)C(=O)N[C@@H](CCC(N)=O)C(=O)N[C@@H](CCCCN)C(=O)NC(C)(C)C(=O)N[C@@H](CCC(N)=O)C(=O)N[C@@H](CCCNC(=N)N)C(=O)N[C@@H](CCC(=O)O)C(=O)N[C@@H](CCC(N)=O)C(=O)N[C@@H](C)C(=O)N[C@@H](CCC(=O)O)C(=O)N[C@@H](CCCCN)C(=O)N[C@@H](CC(N)=O)C(=O)N[C@@H](CCCCN)C(=O)N[C@@H](CCCNC(=N)N)C(=O)N[C@H](C(=O)N[C@@H](CC(C)C)C(=O)N[C@@H](CCC(=O)O)C(=O)N[C@@H](CCCNC(=N)N)C(=O)N[C@H](C(N)=O)C(C)C)[C@@H](C)CC)[C@@H](C)CC)[C@@H](C)CC)C(C)C)C(C)C [compound 125] (H-IVLSLDVPIKLK([AEEA-AEEA-γGlu-C18 diacid])QILLEQARQK[Aib]QREQAEKNKRILERV-NH2; N-terminus assumed) |
